This passage reports inhibition, IC50 and Kd results from publication PMC10030462, “SB2301-mediated perturbation of membrane composition in lipid droplets induces lipophagy and lipid droplets ubiquitination” (Communications Biology, 2023).

Assay [1] has as its system HeLa human cervical cancer cells. In words: cells. The arrangement: cellular lipid droplet reduction, fluorescence imaging high-content phenotypic screen. Particulars: 24 h, lipid droplet reduction in HeLa; for IC50: read-out: LD reduction (IC50, uM) Potency. As for the experimental part:
The LD reduction activity of these analogues (1–20) was initially evaluated in human cervical cancer HeLa cells at a fixed concentration (10 μM each) to determine the efficacy of LD reduction. In addition, potency was determined by measuring the half-maximal inhibitory concentration (IC50) (Supplementary Table 1). Compounds with high cytotoxicity and low water solubility were excluded during high-content phenotypic screening. […] We also observed a similar pattern of LD reduction in human hepatocellular carcinoma HepG2 cells (Supplementary Fig. 2A) and mouse hepatocyte AML12 cells (Supplementary Fig. 2B). Consistent with the reduction in cellular LDs, the cellular triglyceride (TG) content was reduced in a dose-dependent manner (Fig. 1E). Based on these findings, we conducted a further study to determine the mechanism by which SB2301 reduced cellular LDs.

Assay [2] has as its target T1, PCYT2 (ethanolamine-phosphate cytidylyltransferase 2) (Homo sapiens, UniProt Q99447).
T1 construct: Human PCYT2 (Prospec, enz-221)
Nature of the assay: SPR (Biacore T100, immobilized human PCYT2, […] fit); also CETSA and TS-FITGE in HepG2 cells. It counts as binding. On the technique in general: SPR reads the build-up and loss of mass on a sensor chip optically.

T1 sequence (Q99447 whole entry): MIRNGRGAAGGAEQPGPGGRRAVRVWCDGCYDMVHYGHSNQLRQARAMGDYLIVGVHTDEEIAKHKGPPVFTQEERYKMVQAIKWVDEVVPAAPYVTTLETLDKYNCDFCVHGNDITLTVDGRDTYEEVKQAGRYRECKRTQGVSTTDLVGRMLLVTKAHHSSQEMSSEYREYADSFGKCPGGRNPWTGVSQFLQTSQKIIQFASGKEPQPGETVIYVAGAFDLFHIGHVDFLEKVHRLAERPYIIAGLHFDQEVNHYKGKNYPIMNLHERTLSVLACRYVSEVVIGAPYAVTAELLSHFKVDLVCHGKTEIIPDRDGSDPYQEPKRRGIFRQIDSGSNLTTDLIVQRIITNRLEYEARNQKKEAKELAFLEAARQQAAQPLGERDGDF

By inhibition is commonly meant the drop in the measured response relative to a control, in per cent. By IC50 is commonly meant the point on the concentration scale where inhibition reaches its midpoint. As for `COc1ccccc1-n1cc(-c2ccc3cc(-c4cccc(O)c4)ccc3n2)nn1` [compound 1, 1], in assay [1], the inhibition at 10 µM was found to be 50% and the IC50 is 6.7 µM.

For `COc1ccc(-n2cc(-c3ccc4cc(-c5cccc(O)c5)ccc4n3)nn2)cc1` [compound 3, 3], in assay [1], the inhibition at 10 µM turned out to be 19% and the IC50 is 3.7 µM.

What is called Kd is the free concentration of one partner at which half of the binding sites on the other are occupied at equilibrium, for simple one-to-one binding. Lower therefore signals tighter binding. `Oc1cccc(-c2ccc3nc(-c4cn(-c5ccccc5C(F)(F)F)nn4)ccc3c2)c1` [compound 4, SB2301]: the Kd in assay [2] was ~26 µM. In addition, in assay [1], the inhibition at 10 µM worked out at 64.5% and the IC50 amounted to 4.4 µM.

Take `Oc1cccc(-c2ccc3nc(-c4cn(-c5ccc(C(F)(F)F)cc5)nn4)ccc3c2)c1` [compound 6, 6]: in assay [1], the inhibition at 10 µM amounted to 35.9% and the IC50 came out at 32 µM.

As to `N#Cc1ccccc1-n1cc(-c2ccc3cc(-c4cccc(O)c4)ccc3n2)nn1` [compound 7, 7], in assay [1], the inhibition at 10 µM stood at 30.4% and the IC50 worked out at 14.8 µM.

With `N#Cc1cccc(-n2cc(-c3ccc4cc(-c5cccc(O)c5)ccc4n3)nn2)c1` [compound 8, 8], in assay [1], the inhibition at 10 µM was -7.1% and the IC50 was 27.6 µM.

Consider `Oc1cccc(-c2ccc3nc(-c4cn(-c5ccccc5Cl)nn4)ccc3c2)c1` [compound 10, 10], for which, in assay [1], the inhibition at 10 µM came out at 2.7% and the IC50 worked out at 10.1 µM.

For the compound `Oc1cccc(-c2ccc3nc(-c4cn(-c5cccc(F)c5)nn4)ccc3c2)c1` [compound 11, 11], in assay [1], the inhibition at 10 µM came to 19.2% and the IC50 stood at 20.6 µM.

`Oc1cccc(-c2ccc3nc(-c4cn(-c5ccc(Br)cc5)nn4)ccc3c2)c1` [compound 12, 12]: in assay [1], the inhibition at 10 µM amounted to 36.8% and the IC50 stood at 4.7 µM.

In the case of `Oc1cccc(-c2ccc3nc(-c4cn(-c5ccccc5O)nn4)ccc3c2)c1` [compound 13, 13], in assay [1], the inhibition at 10 µM came out at 12.7% and the IC50 was 11.6 µM.

Take `O=[N+]([O-])c1ccccc1-n1cc(-c2ccc3cc(-c4cccc(O)c4)ccc3n2)nn1` [compound 14, 14]: in assay [1], the inhibition at 10 µM stood at 48.5% and the IC50 was determined as 7.9 µM.
